Laboratory results from article PMC6338644 (The FASEB Journal, 2018).

Key:
[1] = system: Immortalized human podocytes; test: Glucose uptake assay in podocytes; format: cell-based
Procedure: (§1) Immortalized human podocytes were maintained as previously described ([10]). […] Podocytes were lysed as previously described ([21]).
(§2) Glucose uptake assay and On-Cell Western were performed essentially as in Tolvanen et al. ([19]). […] Cells were transferred on ice; incubated with anti-HA IgG in serum-free medium for 15 min, followed by additional incubation in fresh cell differentiation medium for 15 min at +37°C; and fixed with 2% paraformaldehyde for 20 min. Cells were incubated with IRDye 800 donkey anti-mouse IgG and nuclear marker DRAQ-5 (Thermo Fisher Scientific). Detection and quantitation were performed with the Odyssey Infrared Imager (Li-Cor Biosciences, Lincoln, NE, USA).
(§3) L6-GLUT4 myotubes overexpressing SHIP2 were treated and glucose uptake performed as described in C. […] Time point 15 min indicates the amount of HA detected on the cells after 15 min internalization.

[2] = biological target: T1, His-tagged human SHIP1 phosphatase domain (Homo sapiens, UniProt Q92835); test: Malachite green phosphate assay, recombinant SHIP1 phosphatase domain (High Throughput Biomedicine Unit); format: biochemical; settings: for inhibition at 100 µM: inhibitors at 100 µM concentration, read-out: SHIP1 Inhibition efficiency; for IC50: purified His-tagged phosphatase domain
T1 construct: Recombinant His-tagged human SHIP2 and SHIP1 phosphatase domains were produced as previously described; His; made in house
T1 sequence (Q92835 399-715 limits assumed): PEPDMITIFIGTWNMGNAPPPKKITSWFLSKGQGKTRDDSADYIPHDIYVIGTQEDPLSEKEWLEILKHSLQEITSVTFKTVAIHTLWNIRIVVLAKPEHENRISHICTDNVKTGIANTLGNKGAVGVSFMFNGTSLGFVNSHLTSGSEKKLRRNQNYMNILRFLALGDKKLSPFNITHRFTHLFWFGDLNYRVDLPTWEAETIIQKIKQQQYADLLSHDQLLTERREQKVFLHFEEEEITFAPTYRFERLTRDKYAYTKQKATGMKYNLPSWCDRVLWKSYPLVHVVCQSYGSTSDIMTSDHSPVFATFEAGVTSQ
Procedure: (§4) Recombinant His-tagged human SHIP2 and SHIP1 phosphatase domains were produced as previously described ([17]). […] Immunocomplexes were bound to protein G-Sepharose beads at +4°C for 2 h and washed 3 times with malachite green phosphate assay buffer {10 mM 4-(2-hydroxyethyl)-1-piperazineethanesulfonic acid (HEPES), pH 7.25, 6 mM MgCl2, 0.1% 3-[(3-cholamidopropyl)dimethylammonio]-1-propanesulfonate (CHAPS), 250 mM sucrose, and 0.25 mM EDTA}.
(§5) The catalytic activities of the recombinant SHIP2 and SHIP1 phosphatase domains were determined by malachite green phosphate assay at the High Throughput Biomedicine Unit (University of Helsinki) using D-myo-PI(3,4,5)P3 (Echelon Biosciences, Salt Lake City, UT, USA). Different volumes, resulting in desired final concentrations of inhibitors, were transferred to the wells of 384-well plates by using the Echo550 acoustic dispenser (Labcyte, San Jose, CA, USA). Recombinant protein (100 ng) in reaction buffer {10 mM HEPES, pH 7.25, 6 mM MgCl2, 0.1% CHAPS, 250 mM sucrose, and 0.25 mM EDTA} was placed in each well (7.5 µl), and the plates were preincubated at room temperature for 15 min. The phosphatase reaction was started by adding PI(3,4,5)P3 diluted in the reaction buffer (7.5 µl) to each well to reach a final concentration of 100 µM PI(3,4,5)P3 in the 15 µl reaction volume. The plates were incubated at room temperature for 20 min, after which, 15 µl BIOMOL green reagent (Biomol, Plymouth Meeting, PA, USA) was added to each well, and then the plates were incubated for another 25 min at room temperature. Absorbance was measured at 620 nm using a Pherastar FS plate reader (BMG Labtech, Offenburg, Germany). For the manual malachite green phosphate assay in 96-well plates [see Fig. 1; and activity measurement of phosphatase and tensin homolog (PTEN; Signalchem, Richmond, BC, Canada)], the reaction volume was increased to 50 µl, and 100 µl Biomol Green Reagent was added. The catalytic activity of SHIP2 immunoprecipitated from cell and tissue lysates was determined as in Saurus et al. ([22]), omitting SHIP2 inhibitors in lysis buffer, immunoprecipitation reaction, wash, and assay buffers. AS1949490 was synthesized, as described in Supplemental Fig. S1A, or purchased from Tocris Bioscience (Bristol, United Kingdom).

[3] = biological target: T2, His-tagged human SHIP2 phosphatase domain (Homo sapiens, UniProt O15357); test: Malachite green phosphate assay, recombinant SHIP2 phosphatase domain (High Throughput Biomedicine Unit, 384-well); format: biochemical; settings: for inhibition at 100 µM: inhibitors at 100 µM concentration, read-out: SHIP2 Inhibition efficiency; for IC50: purified His-tagged phosphatase domain, 100 µM PI(3,4,5)P3
T2 construct: we produced a His-tagged human SHIP2 phosphatase domain; His; made in house
T2 sequence (O15357 419-732 limits assumed): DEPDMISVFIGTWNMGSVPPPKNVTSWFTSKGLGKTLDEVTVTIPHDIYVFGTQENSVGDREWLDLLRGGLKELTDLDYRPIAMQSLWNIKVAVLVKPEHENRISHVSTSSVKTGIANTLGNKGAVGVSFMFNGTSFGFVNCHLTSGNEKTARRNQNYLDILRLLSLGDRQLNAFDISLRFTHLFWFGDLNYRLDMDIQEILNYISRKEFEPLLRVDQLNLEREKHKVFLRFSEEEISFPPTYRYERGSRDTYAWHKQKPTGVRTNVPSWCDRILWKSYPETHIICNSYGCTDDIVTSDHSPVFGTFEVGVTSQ
Procedure: as §4, §5

db/db mice = settings: cited from earlier work
[4] = system: HA-GLUT4-GFP at the plasma membrane of L6-GLUT4 cells; test: On-Cell Western and HA-GLUT4-GFP endocytosis assay in L6-GLUT4 cells; format: cell-based, rat; settings: insulin 100 nM, 15 min
Procedure: as §2
C) Knockdown of SHIP2 reduces metformin-induced glucose uptake. […] L6-GLUT4 myotubes overexpressing SHIP2 were treated and glucose uptake performed as described in C. […] Time point 15 min indicates the amount of HA detected on the cells after 15 min internalization.

L6-GLUT4 myotubes = test: Glucose uptake assay in L6-GLUT4 myotubes; format: cell-based, rat; settings: insulin 100 nM, 15 min; serum-starved
Procedure: as §1, §2, §3

Row | Compound | inhibition at 100 µM [2] | IC50 [2] | inhibition at 100 µM [3] | IC50 [3] | further results
1 | NC(=O)c1ncn([C@@H]2O[C@H](CO)[C@@H](O)[C@H]2O)c1N [AICAR, 5-aminoimidazole-4-carboxamide ribonucleoside] | – | – | – | – | glucose uptake in podocytes ([1]; AICAR 1 mM, 20–24 h, alone): failed to increase; glucose uptake in podocytes, insulin combined with AICAR ([1]; AICAR 1 mM, 20–24 h plus insulin 200 nM, 15 min): failed to increase
2 | O=C(Cc1c(F)cccc1F)Nc1cc(OCc2ccc(Cl)cc2)ccn1 [N-[4-(4-chlorobenzyloxy)pyridin-2-yl]-2-(2,6-difluorophenyl)-acetamide] | – | – | – | – | PCK1 expression in db/db mice (db/db mice): reduce
3 | Insulin: insulin used to stimulate cells (100 or 200 nM, 15 min) | – | – | – | – | glucose uptake in podocytes ([1]; insulin 200 nM, 15 min): did not respond; decrease in amount of HA-GLUT4-GFP on the PM after 15 min uptake (endocytosis) [4]: 20%; increase in glucose uptake in L6-GLUT4 cells (L6-GLUT4 myotubes): 20%

Continued, in another order:

Row | inhibition at 100 µM [2] | IC50 [2] | inhibition at 100 µM [3] | IC50 [3] | Compound | further results
4 | 30% | 24.6 µM | 76.6% | 6.2 µM | CC(=O)O[C@]1(C(C)=O)CC[C@H]2[C@@H]3C=C(C)C4=CC(=O)CC[C@]4(C)[C@H]3CC[C@@]21C [Megestrol acetate, 17-(acetyloxy)-6-methylpregna-4,6-diene-3,20-dione] | –
5 | 11.4% | 21.2 µM | 52.9% | 8.8 µM | Sc1ncnc2nc[nH]c12 [Mercaptopurine, 3,7-dihydropurine-6-thione] | –
6 | 29.9% | > 50 µM | 44.9% | 9 µM | Nc1nc2nc[nH]c2c(=S)[nH]1 [Thioguanine, 2-Amino-1H-purine-6(7H)-thione] | –
